# Assay results from patent US11801255B2, “Lipid disulfide prodrugs and uses related thereto” (priority 2017, dated 2023).
# Like-named read-outs stand apart in the source and are kept apart here.
# How the values were obtained:
# HIV-1 = assay: microbe, parasite or virus in culture; conditions: for TI(CC50/EC50): HIV-1, PBMCs
# Procedure: (§1) Compounds synthesized were evaluated against HIV-infected PBMCs and antiviral activity was assessed by measuring reverse transcriptase in cell supernatants. Compounds 11a-e, 12a-e, and 13 were assayed against HBV and qPCR was used to quantify viral DNA following incubation in HepG2.2.15 cells after 6 days.
# PBMCs = assay: in vitro; type: cell-based, human
# HBV = assay: Antiviral activity against HBV in HepG2.2.15 cells, viral DNA by qPCR after 6 days; conditions: for HBV TI (CC50/EC50): HepG2; for EC50: read-out: HBV EC50 (HepG2)
# Procedure: as §1
# HepG2 = assay: Cytotoxicity: viability of uninfected HepG2 cells; type: cell-based; conditions: read-out: HBV CC50 (HepG2)
# [1] = Stability in human plasma/serum by LC-MS; type: in vitro ADME; conditions: human plasma
# Procedure: Aliquots of each sample were analyzed by LC-MS at varying times points over the course of 2 hours with a final time point at 24 to assess decomposition.
# in vitro = type: cell-based, human; conditions: human; Table 1; viability of uninfected cells reduced by 50%; read-out: HIV-1 CC50 (PBMCs)
# [2] = monkeys; cited from earlier work
# [3] = rats; cited from earlier work
# [4] = read-out: EC50 (PBMCs), Table 4, HIV-1
# [5] = Table 4, read-out: CC50 (PBMCs)
# [6] = read-out: HIV-1 activity (EC50), PBMCs
# [7] = read-out: HIV-1 EC50 (PBMCs), Table 1, inhibit HIV-1 by 50%, average of triplicate
# [8] = Table 1, viability of uninfected cells reduced by 50%, read-out: HIV-1 CC50 (PBMCs)
compound,measurement,setting,value
CCCCCCCCCCCCSSCCOP(=O)(CO[C@H](C)Cn1cnc2c(N)ncnc21)OCCSSCCCCCCCCCCCC [Compound 12b],HIV-1 TI (CC50/EC50),"HIV-1; Table 2, PBMCs",>85.0
same,EC50,"HIV-1; read-out: HIV-1 EC50 (PBMCs), Table 2",1.18 µM
same,CC50,"PBMCs; Table 2, read-out: HIV-1 CC50 (PBMCs)",> 100 µM
same,HBV TI (CC50/EC50),HBV; Table 2,>1
same,EC50,HBV; Table 2,> 100 µM
same,CC50,HepG2; Table 2,> 100 µM
CCCCCCCCCCCCCCCCSSCCOP(=O)(COC(C)Cn1cnc2c(N)ncnc21)OCCC (mixture of isomers) [Compound 15],TI(CC50/EC50),HIV-1; Table 4,49.0
same,EC50,HIV-1; [4],0.216 µM
same,CC50,PBMCs; [5],10.6 µM
CCCCCCCCCCCCCCCCSSCCOP(=O)(COC(C)Cn1cnc2c(N)ncnc21)OCc1ccccc1 (mixture of isomers) [Compound 19],TI(CC50/EC50),HIV-1; Table 4,"2,300"
same,EC50,HIV-1; [6],0.018 µM
same,CC50,PBMCs; [5],41.1 µM
CCCCCCCCCCCCCCCCSSCCOP(=O)(COC(C)Cn1cnc2c(N)ncnc21)OCC (mixture of isomers) [Compound 14],TI(CC50/EC50),HIV-1; Table 4,104
same,EC50,HIV-1; [4],0.349 µM
same,CC50,PBMCs; [5],36.2 µM
CCCCCCCCCCCCCCCCCCSSCCOP(=O)(O)CO[C@H](C)Cn1cnc2c(N)ncnc21.N [Compound 11e],HIV-1 TI (CC50/EC50),"HIV-1; Table 1, PBMCs","11,000"
same,EC50,HIV-1; [7],0.0006 µM
same,CC50,PBMCs; [8],6.36 µM
same,HBV TI (CC50/EC50),HBV; Table 1,>50
same,EC50,"HBV; Table 1, inhibit HBV by 50%",0.505 µM
same,CC50,"HepG2; Table 1, uninfected cells",> 50 µM
CCCCCCCCCCCCCCCCCCOP(=O)(COC(C)Cn1cnc2c(N)ncnc21)OCCSSCCCCCCCCCCCCCCCC (mixture of isomers) [Compound 21],TI(CC50/EC50),HIV-1; Table 4,>50
same,EC50,HIV-1; [6],0.911 µM
same,CC50,PBMCs; [5],> 50 µM
"C[C@H](Cn1cnc2c(N)ncnc21)OCP(=O)(O)OCCSSCCO [DTE-TFV, reference compound]",fold less active than TFV against HIV-1,HIV-1,5 fold
same,HIV-1 TI (CC50/EC50),"HIV-1; Table 1, PBMCs",>62.1
same,EC50,HIV-1; [7],1.61 µM
same,CC50,PBMCs; [8],> 100 µM
same,HBV TI (CC50/EC50),HBV; Table 1,>8.6
same,EC50,"HBV; Table 1, inhibit HBV by 50%",11.6 µM
same,CC50,"HepG2; Table 1, uninfected cells",> 100 µM
same,t1/2 in human plasma,[1],34 min
CCCCCCCCCCCCCCCCSSCCOP(=O)(COC(C)Cn1cnc2c(N)ncnc21)OC (mixture of isomers) [Compound 13],TI(CC50/EC50),HIV-1; Table 4,"1,500"
same,EC50,HIV-1; [6],0.026 µM
same,CC50,PBMCs; [5],38.2 µM
"CCCCCCCCCCCCCCCCOCCCOP(=O)(O)CO[C@H](C)Cn1cnc2c(N)ncnc21 [CMX-157, Hexadecyloxypropyl-Tenofovir, reference compound]",HIV-1 TI (CC50/EC50),HIV-1,>5000
same,EC50,"HIV-1; Human immunodeficiency virus 1, PBMC, read-out: HIV-1 EC50 (PBMCs)",0.02 µM
same,EC50,"HIV-1; Human immunodeficiency virus 1, PBMC, read-out: HIV-1 activity (EC50)",0.02 µM
same,CC50,in vitro,> 100 µM
CCCCCCCCCCCCCCCCSSCCOP(=O)(COC(C)Cn1cnc2c(N)ncnc21)OCC(C)(C)C (mixture of isomers) [Compound 18],TI(CC50/EC50),HIV-1; Table 4,>700
same,EC50,HIV-1; [6],0.14 µM
same,CC50,PBMCs; [5],> 100 µM
Nc1ncnc2c1ncn2CCOCP(=O)(O)O [adefovir],bioavailability,[2],< 1%
same,bioavailability,[3],8-11%
CCCCCCCCCCCCCCCCSSCCOP(=O)(COC(C)Cn1cnc2c(N)ncnc21)OCCCC (mixture of isomers) [Compound 16],TI(CC50/EC50),HIV-1; Table 4,150
same,EC50,HIV-1; [4],0.19 µM
same,CC50,PBMCs; [5],27.9 µM
